Reference: the NIST ThermoML archive (doi:10.1021/acs.jced.8b00229)

Settings: Liquid, Vibrating tube method

C=CCCCC [hex-1-ene]
Settings | mass density [kg/m3]
283.57 K, 1000 kPa | 683.2
283.57 K, 3000 kPa | 685.2
283.57 K, 5000 kPa | 687.2
283.57 K, 10000 kPa | 691.9
283.57 K, 15000 kPa | 696.4
283.57 K, 20000 kPa | 700.6
283.57 K, 25000 kPa | 704.7
283.57 K, 30000 kPa | 708.5
283.57 K, 35000 kPa | 712.4
283.57 K, 45000 kPa | 719.4
283.58 K, 500 kPa | 682.3
283.58 K, 40000 kPa | 714.7
283.58 K, 50000 kPa | 722.4
283.58 K, 55000 kPa | 725.5
283.58 K, 60000 kPa | 728.6
283.58 K, 70000 kPa | 734.4
283.58 K, 80000 kPa | 739.9
283.59 K, 100 kPa | 682.2
283.59 K, 90000 kPa | 745.2
283.59 K, 100000 kPa | 750.1
293.5 K, 1000 kPa | 674.1
293.51 K, 100 kPa | 673.1
293.51 K, 500 kPa | 673.5
293.51 K, 3000 kPa | 676.3
293.51 K, 5000 kPa | 678.4
293.51 K, 10000 kPa | 683.5
293.51 K, 20000 kPa | 692.8
293.51 K, 25000 kPa | 697
293.51 K, 30000 kPa | 701.1
293.51 K, 35000 kPa | 704.9
293.51 K, 55000 kPa | 718.9
293.51 K, 60000 kPa | 722.1
293.51 K, 70000 kPa | 728.2
293.51 K, 80000 kPa | 733.8
293.51 K, 90000 kPa | 739.3
293.51 K, 100000 kPa | 744.4
293.52 K, 15000 kPa | 688.3
293.52 K, 40000 kPa | 708.6
293.52 K, 45000 kPa | 712.5
293.52 K, 50000 kPa | 715.6
303.4 K, 500 kPa | 664.1
303.4 K, 1000 kPa | 664.6
303.41 K, 100 kPa | 663.5
303.41 K, 3000 kPa | 667
303.41 K, 5000 kPa | 669.3
303.41 K, 10000 kPa | 674.8
303.41 K, 15000 kPa | 679.9
303.41 K, 20000 kPa | 684.7
303.41 K, 25000 kPa | 689.2
303.42 K, 30000 kPa | 693.5
303.42 K, 35000 kPa | 698.2
303.42 K, 40000 kPa | 701.5
303.42 K, 45000 kPa | 705.8
303.42 K, 50000 kPa | 708.8
303.42 K, 55000 kPa | 712.8
303.42 K, 60000 kPa | 715.5
303.42 K, 70000 kPa | 721.8
303.42 K, 80000 kPa | 727.7
303.42 K, 90000 kPa | 733.2
303.42 K, 100000 kPa | 738.5
313.34 K, 100 kPa | 654.1
313.34 K, 20000 kPa | 676.6
313.35 K, 500 kPa | 654.2
313.35 K, 1000 kPa | 655.3
313.35 K, 3000 kPa | 657.9
313.35 K, 5000 kPa | 660.3
313.35 K, 10000 kPa | 666.1
313.35 K, 15000 kPa | 671.6
313.35 K, 25000 kPa | 681.4
313.35 K, 30000 kPa | 685.9
313.35 K, 35000 kPa | 690.2
313.35 K, 40000 kPa | 694.3
313.35 K, 45000 kPa | 698.3
313.35 K, 50000 kPa | 701.9
313.35 K, 55000 kPa | 705.7
313.35 K, 60000 kPa | 709
313.35 K, 80000 kPa | 721.9
313.35 K, 90000 kPa | 727.6
313.35 K, 100000 kPa | 733.2
313.36 K, 70000 kPa | 715.9
323.18 K, 100 kPa | 644.5
323.18 K, 60000 kPa | 702.5
323.19 K, 500 kPa | 644.9
323.19 K, 1000 kPa | 645.8
323.19 K, 3000 kPa | 648.6
323.19 K, 5000 kPa | 651.3
323.19 K, 10000 kPa | 657.6
323.19 K, 50000 kPa | 695.2
323.19 K, 55000 kPa | 699.3
323.2 K, 15000 kPa | 663.4
323.2 K, 20000 kPa | 668.8
323.2 K, 30000 kPa | 678.6
323.2 K, 35000 kPa | 683.4
323.2 K, 40000 kPa | 687.3
323.2 K, 70000 kPa | 709.4
323.2 K, 80000 kPa | 715.7
323.2 K, 90000 kPa | 721.6
323.2 K, 100000 kPa | 727.2
323.21 K, 25000 kPa | 673.8
323.21 K, 45000 kPa | 691.8
333.08 K, 500 kPa | 635.3
333.08 K, 1000 kPa | 636
333.08 K, 3000 kPa | 639.1
333.08 K, 5000 kPa | 642
333.08 K, 10000 kPa | 648.8
333.09 K, 15000 kPa | 655
333.09 K, 20000 kPa | 660.8
333.09 K, 25000 kPa | 666.1
333.09 K, 30000 kPa | 671.1
333.09 K, 35000 kPa | 676.4
333.09 K, 40000 kPa | 680.2
333.09 K, 45000 kPa | 685.1
333.09 K, 50000 kPa | 688.5
333.09 K, 55000 kPa | 693
333.09 K, 60000 kPa | 696.1
333.09 K, 70000 kPa | 703.3
333.09 K, 80000 kPa | 709.8
333.09 K, 90000 kPa | 715.9
333.09 K, 100000 kPa | 721.7
342.96 K, 500 kPa | 625.6
342.96 K, 1000 kPa | 626.4
342.97 K, 3000 kPa | 629.8
342.97 K, 5000 kPa | 633
342.97 K, 10000 kPa | 640.3
342.97 K, 15000 kPa | 647
342.97 K, 20000 kPa | 653.2
342.97 K, 25000 kPa | 658.8
342.97 K, 30000 kPa | 664.1
342.97 K, 35000 kPa | 669.6
342.97 K, 40000 kPa | 673.8
342.97 K, 45000 kPa | 678.8
342.97 K, 50000 kPa | 682.3
342.97 K, 55000 kPa | 687
342.97 K, 60000 kPa | 690.4
342.97 K, 70000 kPa | 697.6
342.97 K, 80000 kPa | 704.3
342.97 K, 90000 kPa | 710.7
342.97 K, 100000 kPa | 716.6
352.85 K, 500 kPa | 615.7
352.85 K, 1000 kPa | 617
352.85 K, 3000 kPa | 620.7
352.85 K, 5000 kPa | 624.2
352.85 K, 15000 kPa | 639.4
352.86 K, 10000 kPa | 632.2
352.86 K, 20000 kPa | 645.7
352.86 K, 25000 kPa | 651.7
352.86 K, 30000 kPa | 657.4
352.86 K, 35000 kPa | 662.8
352.86 K, 40000 kPa | 667.4
352.86 K, 45000 kPa | 672.4
352.86 K, 50000 kPa | 676.6
352.86 K, 55000 kPa | 680.9
352.86 K, 60000 kPa | 684.8
352.86 K, 70000 kPa | 692.4
352.86 K, 80000 kPa | 699.4
352.86 K, 90000 kPa | 705.9
352.86 K, 100000 kPa | 712
362.7 K, 500 kPa | 604.1
362.7 K, 1000 kPa | 605.5
362.7 K, 100000 kPa | 705.7
362.71 K, 3000 kPa | 609.5
362.71 K, 5000 kPa | 613.3
362.71 K, 10000 kPa | 622
362.71 K, 15000 kPa | 629.7
362.71 K, 20000 kPa | 636.7
362.71 K, 25000 kPa | 643
362.71 K, 30000 kPa | 648.9
362.71 K, 35000 kPa | 654.7
362.71 K, 40000 kPa | 659.6
362.71 K, 45000 kPa | 664.8
362.71 K, 50000 kPa | 669
362.71 K, 55000 kPa | 673.7
362.71 K, 60000 kPa | 677.6
362.71 K, 70000 kPa | 685.4
362.71 K, 80000 kPa | 692.6
362.71 K, 90000 kPa | 699.3
